According to PubChem BioAssay AID1988 (Broad Institute, 2009):
pEC50: −log10 of the molar value. Results filed as inconclusive are left out.

System: H4 cells, SNCA 5'UTR luciferase reporter translation
Experiment: inhibitors of SNCA 5'UTR-driven reporter translation, confirmation, luminescence (AID 1988)

Compound	pEC50
COc1ccc(O)c2c(=O)c3c(OC)cc4c(c3oc12)C1C=COC1O4 (stereo not drawn)	> 7.00
C#CCOCCOCCOCCNc1nc(N2CCN(C(=O)CCCCCCCCCCNC(=O)[C@H](CO)n3cc(CCCSC)nn3)CC2)nc(N2CCN(C(=O)CCCCCCCCCCNC(=O)[C@H](CCCCN)n3cc(C[C@@H](C)CC)nn3)CC2)n1	5.15
C=C(C=O)CC1CC(O)[C@]2(C)OC3CC4OC5C[C@]6(C)O[C@]7(C)CCC8OC9C[C@]%10(C)OC%11C(C)=CC(=O)OC%11CC%10OC9C[C@@H](C)C8OC7CC6O[C@]5(C)CC5OC5C4OC3CC2O1 (stereo partly drawn)	5.13
